In brackets after ≈: the same amount, converted by molar mass.
Experiments:
[1] = biological target: AmpC; assay: In vitro enzyme inhibition assay (nitrocefin hydrolysis), AmpC; format: biochemical; details: nitrocefin 100µM, 10mM HEPES pH 7.5; banded; read-out: Amp-C mean IC50
Experimental: (§1) Compound dilution was performed in DMSO.

[2] = test system: NTBC091.1 (E. coli strain expressing KPC-2, TEM-1); assay: Meropenem potentiation, broth micro-dilution MIC, strain NTBC091.1; format: cell-based; details: for MIC mero + 4 µg/mL inhibitor: NTBC091.1, MIC of meropenem with 4 µg/mL of the labelled compound; for MIC of combination with meropenem compared with the combination of meropenem and avibactam: strain NTBC091.1
[3] = test system: NTBC093 (E. cloacae strain expressing KPC-2, TEM-1); assay: Meropenem potentiation, broth micro-dilution MIC, strain NTBC093; format: cell-based; details: for MIC mero + 4 µg/mL inhibitor: NTBC093, MIC of meropenem with 4 µg/mL of the labelled compound, banded
[4] = biological target: CTX-M15 (Escherichia coli, UniProt Q9EXV5); assay: In vitro enzyme inhibition assay (nitrocefin hydrolysis), CTX-M15; format: biochemical; details: nitrocefin 50µM, 10mM HEPES pH 7.5; numeric value
Experimental: as §1

[5] = test system: NTBC096.1 (K. pneumoniae strain expressing OXA-181 and SHV-11); assay: Meropenem potentiation, broth micro-dilution MIC, strain NTBC096.1; format: cell-based
[6] = test system: NTBC189 (K. pneumoniae strain expressing TEM-OSBL(b), CTX-M-14, OXA-48(c)); assay: Meropenem potentiation, broth micro-dilution MIC, strain NTBC189; format: cell-based
[7] = test system: clinical strains of Enterobacteriaceae that are resistant to betalactam antibiotics (produce OXA variants of SBL enzymes); assay: Cumulative MIC against large panel of resistant clinical strains (Figure 1); format: cell-based; details: at an MIC of 1 µg/mL, Example 10 in combination with meropenem
Excerpt: The data is presented in Figure 1 in the standard cumulative MIC fashion.

[8] = test system: NTBC099 (K. pneumoniae strain expressing KPC-3, SHV-11 and TEM-1); assay: microbe, parasite or virus in culture; format: cell-based; details: Klebsiella pneumoniae, read-out: MIC mero, µg/mL, no inhibitor
[9] = test system: panel of 48 A. baumannii strains that are resistant to betalactam antibiotics (produces OXA variants of SBL enzymes); assay: Cumulative MIC against panel of 48 resistant strains (Figure 2); format: cell-based; details: in the presence of 16 µg/mL of each inhibitor, Example 10 in combination with meropenem
Excerpt: The data is presented in Figure 2 in the standard cumulative MIC fashion.

[10] = Klebsiella pneumoniae, read-out: MIC mero, µg/mL, no inhibitor

Chain of CTX-M15 (Q9EXV5 29-291, species assumed): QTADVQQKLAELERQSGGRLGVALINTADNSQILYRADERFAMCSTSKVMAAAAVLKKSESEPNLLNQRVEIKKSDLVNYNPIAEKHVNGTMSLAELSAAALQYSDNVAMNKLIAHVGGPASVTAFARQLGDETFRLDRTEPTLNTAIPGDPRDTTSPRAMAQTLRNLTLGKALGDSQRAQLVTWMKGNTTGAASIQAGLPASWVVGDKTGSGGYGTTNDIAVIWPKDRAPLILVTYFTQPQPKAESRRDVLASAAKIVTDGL

Row | SMILES | IC50 [1] [nM] | MIC mero + 4 µg/mL inhibitor ([2]; banded) | MIC mero + 4 µg/mL inhibitor [3] | also measured
1 | O=C1N2C[C@@H](CC[C@H]2C(F)F)N1OS(=O)(=O)[O-].[Na+] [Example 2, Sodium (2S, 5R)-7-oxo-2-(difluoromethyl)-1,6-diazabicyclo[3.2.1]octan-6-yl sulfate] | 10 to 40 | (A) (MIC < 1 µg/mL (A)) | – | MIC mero + 4 µg/mL inhibitor ([2]; numeric): 0.03 µg/mL; MIC of combination with meropenem compared with the combination of meropenem and avibactam [2]: lower
2 | O=C1N2C[C@@H](CC[C@H]2SC(F)(F)F)N1OS(=O)(=O)[O-].[Na+] [Example 7, Sodium (2R, 5R)-7-oxo-2-[(trifluoromethyl)sulfanyl]-1,6-diazabicyclo[3.2.1]octan-6-yl sulphate] | 40 to 60 | (A) (MIC < 1 µg/mL (A)) | (B) (MIC = 1 or 2 µg/mL (B)) | –
3 | O=C1N2C[C@@H](CC[C@@H]2F)N1OS(=O)(=O)[O-].[Na+] [Example 11, Sodium (2S, 5R)-2-fluoro-7-oxo-1,6-diazabicyclo [3.2.1] octan-6-yl sulfate] | > 60 | (A) (MIC < 1 µg/mL (A)) | (B) (MIC = 1 or 2 µg/mL (B)) | –
4 | O=C1N2C[C@@H](CC[C@H]2C(F)(F)F)N1OS(=O)(=O)[O-].[Na+] [Example 1, Sodium (2S, 5R)-7-oxo-2-(trifluoromethyl)-1,6-diazabicyclo[3.2.1]octan-6-yl sulfate] | < 10 | (A) (MIC < 1 µg/mL (A)) | – | MIC mero + 4 µg/mL inhibitor ([2]; numeric): 0.03 µg/mL; MIC of combination with meropenem compared with the combination of meropenem and avibactam [2]: lower
5 | NC(=O)[C@@H]1CC[C@@H]2CN1C(=O)N2OS(=O)(=O)O [Avibactam, avibactam] | – | – | – | IC50 [4]: 1.4 nM; MIC mero + 4 µg/mL inhibitor ([2]; numeric): 0.06 (A) µg/mL; MIC mero + 4 µg/mL inhibitor ([5]; NTBC096.1, MIC of meropenem with 4 µg/mL of the labelled compound, numeric): 1(B) µg/mL
6 | O=C1N2C[C@@H](CC[C@H]2Cl)N1OS(=O)(=O)[O-].[Na+] [Example 12, Sodium (2R,5R)-2-chloro-7-oxo-1,6-diazabicyclo[3.2.1]octan-6-yl sulfate] | < 10 | (A) (MIC < 1 µg/mL (A)) | (A) (MIC < 1 µg/mL (A)) | MIC of combination with meropenem compared with the combination of meropenem and avibactam [2]: lower
7 | O=C1N2C[C@@H](CC[C@H]2CCl)N1OS(=O)(=O)[O-].[Na+] [Example 6, Sodium (2S, 5R)-2-(chloromethyl)-7-oxo-1,6-diazabicyclo[3.2.1]octan-6-yl sulphate] | 10 to 40 | (A) (MIC < 1 µg/mL (A)) | (A) (MIC < 1 µg/mL (A)) | –
8 | O=C1N2C[C@@H](CC[C@H]2C(Cl)Cl)N1OS(=O)(=O)[O-].[Na+] [Example 3, Sodium (2S,5R)-2-(dichloromethyl)-7-oxo-1,6-diazabicyclo[3.2.1]octan-6-yl sulfate] | 40 to 60 | (A) (MIC < 1 µg/mL (A)) | (A) (MIC < 1 µg/mL (A)) | –
9 | CC(F)(F)[C@@H]1CC[C@@H]2CN1C(=O)N2OS(=O)(=O)[O-].[Na+] [Example 5, Sodium (2S, 5R)-2-(1,1-difluoroethyl)-7-oxo-1,6-diazabicyclo[3.2.1]octan-6-yl sulphate] | 40 to 60 | (A) (MIC < 1 µg/mL (A)) | (A) (MIC < 1 µg/mL (A)) | –
10 | O=C1N2C[C@@H](CC[C@H]2C(F)(F)c2nccs2)N1OS(=O)(=O)[O-].[Na+] [Example 9, Sodium (2S, 5R)-2-[difluoro(1,3-thiazol-2-yl)methyl]-7-oxo-1,6-diazabicyclo[3.2.1]octan-6-yl sulphate] | < 10 | (A) (MIC < 1 µg/mL (A)) | (A) (MIC < 1 µg/mL (A)) | –
11 | O=C1N2C[C@@H](CC[C@H]2COC(F)(F)F)N1OS(=O)(=O)[O-].[Na+] [Example 8, Sodium (2S, 5R)-7-oxo-2-[(trifluoromethoxy)methyl]-1,6-diazabicyclo[3.2.1]octan-6-yl sulphate] | 40 to 60 | (A) (MIC < 1 µg/mL (A)) | (A) (MIC < 1 µg/mL (A)) | –
12 | O=C1N2C[C@@H](CC[C@H]2F)N1OS(=O)(=O)[O-].[Na+] [Example 10, Sodium (2R,5R)-2-fluoro-7-oxo-1,6-diazabicyclo[3.2.1]octan-6-yl sulfate] | 10 to 40 | (A) (MIC < 1 µg/mL (A)) | (A) (MIC < 1 µg/mL (A)) | MIC of combination with meropenem compared with the combination of meropenem and avibactam [2]: lower; MIC of combination with meropenem compared with the combination of meropenem and avibactam ([3]; strain NTBC093): similar; MIC of combination with meropenem compared with the combination of meropenem and avibactam ([5]; strain NTBC096.1): lower; MIC of combination with meropenem compared with the combination of meropenem and avibactam ([6]; strain NTBC189): lower; fraction of strains susceptible [7]: over 90%
13 | O=C1N2C[C@@H](CC[C@H]2CF)N1OS(=O)(=O)[O-].[Na+] [Example 4, Sodium (2S, 5R)-2-(fluoromethyl)-7-oxo-1,6-diazabicyclo[3.2.1]octan-6-yl sulphate] | < 10 | (A) (MIC < 1 µg/mL (A)) | (A) (MIC < 1 µg/mL (A)) | –
14 | C[C@@H](O)[C@H]1C(=O)N2C(C(=O)O)=C(S[C@@H]3CN[C@H](C(=O)N(C)C)C3)[C@H](C)[C@H]12 [meropenem, reference compound] | – | – | – | MIC ([2]; Escherichia coli, read-out: MIC mero, µg/mL, no inhibitor): 4 µg/mL; MIC ([3]; Enterobacter cloacae, read-out: MIC mero, µg/mL, no inhibitor): 8 µg/mL; MIC [5, 10]: 32 µg/mL; MIC [8]: 256 µg/mL (≈ 668 µM); MIC [6, 10]: 32 µg/mL; fraction of strains susceptible [7]: 0%; fraction of strains susceptible [9]: less than 10%

— patent EP3670512A1, “DIAZABICYCLOOCTANONES AS INHIBITORS OF SERINE BETA-LACTAMASES” (Antabio SAS, priority 2018, dated 2020)
